Two substances from patent US20230265435A1, “COMPOSITION COMPRISING OSTEOPONTIN INHIBITOR AS ACTIVE INGREDIENT FOR PREVENTION, ALLEVIATION, OR TREATMENT OF NEURODEGENERATIVE DISEASE” (THE CATHOLIC UNIVERSITY OF KOREA INDUSTRY-ACADEMIC …, priority 2020, published 2023) can be followed below.

The subject of this data set is neural stem cells. The data set can be described thus: Amyloid beta toxicity, MTT assay, OPN antagonist treatment. The data set is classed as cell-based. Here is the method: Next, to confirm the function of the OPN protein for amyloid beta neurotoxicity, the inventors confirmed the level of amyloid beta toxicity according to the treatment of an OPN antagonist or OPN siRNA using neuronal cells.
Specifically, approximately 5×10^4 neural stem cells were seeded in a 24-well plate, and cultured at 37° C. in a CO2 incubator for 24 hours. The medium in the cell-containing plate was replaced with an antibiotic-free, 0.1% serum-containing medium, treated with 0.5 μM levocetirizine (Sigma-Aldrich, L7795, OPN antagonist), and after 6 to 7 hours, the cells were further treated with 3 μM amyloid beta, and after 48 hours of culture, cell viability was confirmed through an MTT assay.

For the substance amyloid beta, the cell viability result (neural stem cells treated with 3 μM amyloid beta alone) is listed as “approximately 60%”.

Regarding levocetirizine, the amyloid beta toxicity result (0.5 μM levocetirizine with 3 μM amyloid beta, 48 hours) is “greatly decreased”.
